According to patent US20100190187A1, “Screening Assays for Antagonists and Analyses of Cardiac Hypertrophy” (The Regents of the University of Michigan Office of …, priority 2006, published 2010):

Assays:
HL-1 cells [1] = experiment: Western blot of hypertrophy biomarkers in HL-1 cells; assay type: cell-based, murine; conditions: for dose dependence of expression of the VDR: FIG. 13(C), compared to control
Experimental: Screening assays employing incubation of VDR containing cells with and without a test compound. Cell extracts can be prepared and screened for increases or decreases of cardiac hypertrophy biomarkers or increase in PKC activity, VDR expression, myotrophin expression, using antibody detection methods described herein. Equivalent protein quantities of test compound cell extracts and control cell extracts can be loaded onto continuous or discontinuous PAGE gels and electrophoresed from 15 min to 24 hours, depending on the size of the gel. Following electrophoresis, the proteins can be electrophoretically transferred to PVDF membranes and probed with antibodies specific for example to Protein Kinase C and downstream regulated products c-myc, VDR, ANP, calbindin 9 and 32 and myotrophin. Bound antibodies can be visualized using chemiluminescent detection, chromatic detection or any method of detection of labeled membrane bound antibodies otherwise known as Western blotting. […] In FIG. 13(A), Western blots reveal that when HL-1 cells are incubated in the presence of a control sample (left lane) and a test compound (right lane). In some embodiments, for example, Vitamin D3 analog or metabolite, can be the test compound, or Vitamin D3 can be a control to measure the activity of the test compound. As shown in FIG. 13(A), Vitamin D3 reduces the expression of ANP, c-myc and calbindin 9 as compared to cells not incubated in the presence if Vitamin D3. […] Vitamin D3 has a positive up-regulating effect upon the expression of the VDR in HL-1 cells.
Treated and control samples of HL-1 cells are trypsinized and removed from flasks. Cell counts are performed under microscope with a Fisher hemacytometer. Samples are centrifuged at 3000 RPM for 2 minutes to obtain a pellet, which is then re-suspended in an SDS-leupeptin sample buffer (SB). This whole cell lysate can then be boiled for 15 minutes, separated into working aliquots, and stored at −20° C. for analysis. Standard Bradford Protein Determination is then performed on all samples. Samples are then electrophoresed as described in Example 4. Following electrophoresis, protein is transferred onto a PVDF (Millipore) membrane. After blocking the membrane for one hour with 5% milk in TBS containing 0.05% Tween 20 (Sigma), the blots are incubated with primary and secondary antibodies according to the dilutions listed below. The blot is washed three times in TBS/0.5% Tween 20 after each incubation, followed by one final wash in TBS. The membrane can then be treated with ECL developer (Amersham Biosciences) and exposed to Kodak Biomax XAR film. To confirm equal loading of protein into the wells each blot can be stripped and re-probed with HRP conjugated goat anti-mouse actin antibody (sc-1616HRP; Santa Cruz Biotechnology Co; 1:1000). The primary antibodies that can be used include rabbit anti-mouse VDR (sc-1008; Santa Cruz Bio; 1:200 dilution); rabbit anti-mouse ANP (AB 5490; Chemicon; 1:500 dilution), mouse monoclonal anti-myotrophin (V11220; BD Transduction Laboratory; 1:1000), rabbit anti-mouse c-myc (sc-764, Santa Cruz Bio; 1:100), and goat anti-mouse calbindin-9 (sc-18038, Santa Cruz Bio; 1:100). The secondary antibodies which can be used include HRP conjugated goat anti-rabbit (AP 132P, Chemicon; 1:1000) for VDR, ANP, and c-myc. HRP conjugated goat anti-mouse (A 2304, Sigma; 1:1000), and bovine anti-goat Ab (sc2350, Santa Cruz Bio; 1:250), for myotrophin and calbindin-9, respectively.

HL-1 cells [2] = experiment: HL-1 cell morphology by light microscopy; assay type: cell-based, murine; conditions: FIG. 11, versus control vehicle
Experimental: In some embodiments, screening assays can be included to determine whether the test compound can alter the structural morphology of the cardiac myocyte in cell culture. HL-1 cells can be incubated in the presence and absence of a test compound to determine whether structural changes can be observed by light microscopy.
HL-1 cells are obtained from Dr. W. C. Claycomb, Louisiana State University Medical Center, New Orleans, La. HL-1 cells (passages 55-75) are maintained at 37° C. under a 5% C02/air atmosphere in Claycomb medium (JRL Bioscience) supplemented with 10% fetal bovine serum, 0.29 mg/mL L-glutamine, 100 units/mL penicillin, 100 μg/mL streptomycin (all Gibco), and 0.1 mM norepinephrine (Sigma). The medium can be replaced approximately every 24 hours. HL-1 cells were grown in T25 culture flasks which were precoated overnight with 2 μg/cm fibronectin/0.02% gelatin solution. HL-1 cells were maintained until they reached confluence at which time the cells were removed by trypsinization and passed into another T25 culture flask coated with gelatin/fibronectin. Cells can be ultimately passed into T75 flasks to increase the number of cells prior to experimentation. Vitamin D experiments are performed in either T75 flasks, or Lab-Tech 2-well slides (for immunohistochemistry), 24 hours after a 1:2 split of confluent cells. […]

C=C1CC[C@H](O)C/C1=C/C=C1\CCC[C@]2(C)[C@@H]([C@H](C)CCCC(C)C)CC[C@@H]12 [Vitamin D3]
levels of intracellular ANP (HL-1 cells [1]; FIG. 13(A)): significantly reduced levels
levels of intracellular Calbindin 9 (HL-1 cells [1]; FIG. 13(A)): significantly reduced levels
levels of intracellular c-myc (HL-1 cells [1]; FIG. 13(A)): significantly reduced levels
expression of the VDR (HL-1 cells [1]; FIG. 13(B), 1 and 24 hours post exposure): up-regulated
dose dependence of expression of the VDR (HL-1 cells [1]): dose dependent
dose dependence of expression of the VDR (HL-1 cells [1]; listed as Vitamin D 3): dose dependent induction of expression of VDR
structural morphology of HL-1 cells (HL-1 cells [2]): growth and presence of structural appendages called dendrites
